Results published in patent US20100152239A1, “Method to Improve Survival in Sepsis” (priority 2008, published 2010).

Experiments:
[1] = Arterial blood pressure during hemorrhage and resuscitation; assay type: in vivo, rat; conditions: 15 ml/kg resuscitation fluid i.v.
Protocol: Animals were anaesthetized by inhalation of isoflurane (5% induction, 2% maintenance; Minrad, Buffalo, N.Y., USA) and subjected to surgical catheter placement into the femoral artery and vein under sterile conditions. To avoid blood clot and maintain catheter patency, the catheters were flushed with 1% heparin solution immediately before placement. […] After the catheter implantation, the blood pressure and the heart rate were recorded for 15 min. to establish a physiological baseline prior the hemorrhage procedure. Then, the animals were subjected to hemorrhage over 15 min. to reach a mean arterial blood pressure (MAP) of 35-40 mmHg and subsequent maintenance of this blood pressure by continued blood withdrawal for another 15 min. After the shock phase, resuscitated animals received specific resuscitation treatment over 40 min. with a total volume of 15 ml/kg (equivalent to 1000 ml of Hextend in a 70 kg person). The femoral artery was catheterized with a catheter R-FAC (Braintree Scientific, Inc., Braintree, Mass., USA) previously flushed with 1% heparin in 0.9% saline to allow spontaneous bleeding due to arterial blood pressure. Shed blood was considered lost and it was not reinfused. After resuscitation treatment, the animals were kept anesthetized for 2 hrs to record heart rate, blood pressure and blood chemistry. […]

[2] = rats; cited from earlier work
HMGB1 = assay: Serum HMGB1 by Western blot during resuscitation; assay type: in vivo, rat; conditions: 2 hrs after hemorrhage; n=4/group
Protocol: (§1) Activation Blood was collected at 2 hrs after the hemorrhagic shock and analyzed using the i-Stat blood analyzer (Abbot Laboratories, IL, USA). Lung function was assessed by analyzing blood gases including total and partial carbon dioxide (TCO2, PCO2), bicarbonate (HCO3), pH and the base excess of extracellular fluid (BEecf). The organ function tests include […] sodium, potassium, chloride, the anion gap (AnGap), total plasma protein (TP), and blood urea nitrogen (BUN). Blood chemistry also included glucose, hematocrit and hemoglobin. The systemic inflammatory status was assessed by analyzing critical pro-inflammatory cytokines and cardiodepressant factors such as TNF and HMGB1. The major organs were collected and immediately sliced and washed with PBS at 4° C. TNF concentrations in serum and major organs were determined by ELISA (R&D Systems, Inc., Minneapolis, Minn., USA). HMGB1 was analyzed by Western blot as previously described.

[3] = Blood chemistry during resuscitation (i-Stat); assay type: in vivo, rat; conditions: blood at 2 hrs after hemorrhage; n=4/group
Protocol: as §1

[4] = system: poly(ADP-ribose) polymerase (PARP); assay: PARP activity in organ homogenates; assay type: in vivo, rat; conditions: liver homogenates; n=4/group
Protocol: (§2) Homogenates were normalized by protein concentration and the activation of IκBα was analyzed by Western blot by using anti-IκBα polyclonal antibody ab7217 and anti-phosphorylated-IκBα(phospho S32+S36) monoclonal antibody [clone39A1431] ab12135 (Abcam; Cambridge, Mass., USA). Transcriptional activity of splenic p65RelA was analyzed by TransAM DNABinding ELISA (Active Motif; Cambridge, Mass., USA) following manufacturer's instructions. […] Protein levels were measured using the Bradford method (BIO-RAD) and PARP activity was normalized to protein content.

TNF [5] = assay: TNF protein in splenectomized hemorrhagic animals after resuscitation; assay type: in vivo, rat; conditions: n=4/group
Protocol: as §1

TNF [6] = assay: TNF protein in serum and organs by ELISA during resuscitation; assay type: in vivo, rat; conditions: non-splenectomized animals; 2 hrs; n=4/group
Protocol: as §1

RelB NF-κB = RelB NF-κB binding to DNA in spleen (TransAM DNA-Binding ELISA); assay type: in vivo, rat; conditions: nuclear extracts at 2 hrs after hemorrhage
p65RelA NF-κB = p65RelA NF-κB binding to DNA in organs (TransAM DNA-Binding ELISA); assay type: in vivo, rat; conditions: nuclear extracts at 2 hrs after hemorrhage
Protocol: as §2

[7] = mice; cited from earlier work
hemorrhagic rats = assay: Survival after severe hemorrhage and resuscitation; assay type: in vivo, rat; conditions: for animals with hemorrhagic shock protected: n=7/group
Protocol: Adult male Sprague-Dawley (350-450 g) rats were purchased from Harlen Sprague-Dawley (Indianapolis, Ind., USA) and allowed to acclimate for 7 days, housed at 25° C. on a 12-hr light/dark cycle. Animals were randomly grouped and assigned to a specific experiment. Investigators were blinded to the experimental treatment.
Animals were anaesthetized by inhalation of isoflurane (5% induction, 2% maintenance; Minrad, Buffalo, N.Y., USA) and subjected to surgical catheter placement into the femoral artery and vein under sterile conditions. To avoid blood clot and maintain catheter patency, the catheters were flushed with 1% heparin solution immediately before placement. Heparin was not used in vivo during the experiment or observation period in agreement with previous studies. After the catheter implantation, the blood pressure and the heart rate were recorded for 15 min. to establish a physiological baseline prior the hemorrhage procedure. Then, the animals were subjected to hemorrhage over 15 min. to reach a mean arterial blood pressure (MAP) of 35-40 mmHg and subsequent maintenance of this blood pressure by continued blood withdrawal for another 15 min. After the shock phase, resuscitated animals received specific resuscitation treatment over 40 min. with a total volume of 15 ml/kg (equivalent to 1000 ml of Hextend in a 70 kg person). The femoral artery was catheterized with a catheter R-FAC (Braintree Scientific, Inc., Braintree, Mass., USA) previously flushed with 1% heparin in 0.9% saline to allow spontaneous bleeding due to arterial blood pressure. Shed blood was considered lost and it was not reinfused. After resuscitation treatment, the animals were kept anesthetized for 2 hrs to record heart rate, blood pressure and blood chemistry. The control animals were also anesthetized with isoflurane for blood collection. Then, the anesthesia was stopped and the animals were allowed to recover from anesthesia and housed individually in regular cages. Splenectomy was performed as we described previously. Briefly, the spleen was identified following a midline laparotomy incision, and removed after appropriate blood vessel ligation. Sham animals underwent laparotomy without splenectomy.
All data in the figures and text are expressed as mean±standard deviation (SD). Statistical analyzes were performed using the one-way ANOVA with multiple pairwise comparisons with the Bonferroni's adjustment for multiple hypothesis testing. The Student's t-test was used to compare mean values between two experimental groups. Statistical analyzes of survival were determined using the logrank test. P-values<0.05 were considered statistically significant.
Adult male Sprague-Dawley hemorrhagic rats received no resuscitation (NR) or were resuscitated with 15 ml/kg (i.v.) Hextend (HEXT) or Hextend supplemented with GTS (GTS). (A) Arterial blood pressure was recorded during hemorrhage and the resuscitation treatment. (B) All animals without resuscitation treatment (NR; n=10) died within the first 5 hrs after hemorrhage with an average time of death of 161±26 min. Resuscitation with Hextend allowed the animals to restore normal blood pressure and tissue perfusion, and yet 90% of the animals died (n=9). […] P<0.05 survival logrank test versus NR (*) or HXT(#).

mRNA TNF = assay: TNF transcription in heart and spleen by real-time PCR; assay type: in vivo, rat; conditions: 2 hrs after hemorrhage; as compared with Hextend; n=4/group
Protocol: We analyzed mRNA TNF levels in the heart and the spleen by real-time PCR (FIG. 5, GTS inhibits TNF transcription in the spleen during resuscitation. Organs from control or hemorrhagic animals without or with resuscitation were analyzed at 2 hrs after hemorrhage. TNF transcription in the (A) heart and (B) spleen was analyzed by real-time PCR. * represents P<0.05 versus HXT (n=4/group; one-way ANOVA with Bonferroni's corrections)). Hemorrhage increased mRNA TNF levels in both the heart and the spleen as analyzed by real-time PCR. […] In order to determine whether the inhibition of splenic TNF is sufficient to account for the anti-inflammatory potential of GTS, we analyzed the pharmacological implications of the spleen during resuscitation.

[8] = system: RAW264.7 macrophage cells; conditions: via alpha7nAchR; cited from earlier work
serum TNF and HMGB1 = conditions: cited from earlier work
macrophages = conditions: via alpha7nAChR; cited from earlier work

COc1ccc(/C=C2\CCCN=C2c2cccnc2)c(OC)c1 [GTS, 3-[(2,4-dimethoxy)benzylidene]-anabaseine]
blood pressure after resuscitation [1]: re-established blood pressure | effect on dopamine turnover [2]: no effect | serum HMGB1 levels (HMGB1): no serum HMGB1 was found | AnGap, bicarbonate and chloride [3]: re-established normal values of AnGap and bicarbonate but not hypochloremia | hyperglycemic response (glucose) [3]: significantly prevented | metabolic acidosis (pH) [3]: prevented metabolic acidosis | uremia (blood urea nitrogen) [3]: did not prevent uremia | hepatic PARP activity [4]: inhibited PARP activation | TNF levels in serum, lung and heart of splenectomized animals (TNF [5]): significantly inhibited serum TNF levels as well as TNF levels in the lung and the heart | systemic (serum) TNF levels in splenectomized animals (TNF [5]): significantly inhibited systemic TNF levels | TNF levels in organs (lung, liver, heart, spleen) (TNF [6]): blunted TNF levels in all of the organs | serum (circulating) TNF levels (TNF [6]): circulating TNF levels similar to those in control mice | RelB NF-κB activation in spleen (RelB NF-κB): not affected | p65RelA NF-κB activation in organs (heart, liver, spleen) (p65RelA NF-κB): inhibited p65RelA NF-κB in most of the organs but not in the heart | effect on locomotor activity [7]: no effect | animals with hemorrhagic shock protected (hemorrhagic rats; 0.02 mg/kg GTS in Hextend): 17% | protection as compared with Hextend solution alone (logrank) (hemorrhagic rats; 0.2 mg/kg GTS): statistically significant protection | animals with hemorrhagic shock protected (hemorrhagic rats; 0.2 mg/kg GTS in Hextend): 67% | protection as compared with Hextend solution alone (logrank) (hemorrhagic rats; 2 mg/kg GTS): statistically significant protection | survival from lethal hemorrhage (hemorrhagic rats; Hextend supplemented with 350 uM GTS, 15 ml/kg i.v., n=7, followed up to 7 days): rescued all the animals from lethal hemorrhage | mRNA TNF levels in heart and spleen (mRNA TNF): decreased mRNA TNF levels in the spleen but not in the heart

CN1CCCC1c1cccnc1 (stereo not drawn) [nicotine]
endotoxin-induced p65NF-κB activation [8]: inhibits endotoxininduced p65NF-κB activation | survival (serum TNF and HMGB1; experimental models of systemic inflammation): improves survival | serum TNF and HMGB1 levels (serum TNF and HMGB1; in vivo treatment, experimental models of systemic inflammation): inhibits serum TNF and HMGB1 levels | systemic TNF levels in sham versus splenectomized animals (serum TNF and HMGB1; previous studies): attenuated systemic TNF levels in sham but not in splenectomized animals | effect on locomotor activity [7]: biphasic effect | production of TNF and HMGB1 in macrophages (macrophages): inhibits TNF and HMGB1 production
